Literature values in patent US8679534B2, “HMG-CoA reductase inhibitor extended release formulation” (Andrx Labs, LLC, priority 1997, dated 2014).

Test system: blood serum cholesterol level
Details: background statement

Q: Which “lowering of the blood serum cholesterol level” value does the source give for `CC[C@H](C)C(=O)O[C@H]1C[C@@H](C)C=C2C=C[C@H](C)[C@H](CC[C@@H]3C[C@@H](O)CC(=O)O3)[C@H]21` [Lovastatin, lovastatin] here?
A: 30-40%
